Reference: US8188059B2, “Compounds and methods for modulating expression of GCGR” (Isis Pharmaceuticals, Inc., priority 2006, dated 2012)
Strand notation (5' to 3'): a small letter for the sugar, then the base; units joined by * are phosphorothioate-linked, units joined directly phosphodiester-linked; [ ] holds rarer units or linkages, { } end groups; capitals alone tell only the bases. e = 2'-O-(2-methoxyethyl) (MOE); [5mC] = 5-methylcytosine; d = 2'-deoxy (DNA)

System: PCSK9 mRNA
Format: cell-based, human
Conditions: Hep3B cells, 100 nM, relative to untreated control cells; for % Inhib (PCSK9 mRNA): 0 = no reduction observed
Method: When cells reached appropriate confluency, they were treated with oligonucleotide using LIPOFECTIN® as described. […] Cells were treated and data were obtained in duplicate or triplicate. […] Cells were harvested 16-24 hours after oligonucleotide treatment.
Short antisense compounds targeted to a PCSK9 nucleic acid were tested for their effects on PCSK9 mRNA in vitro. The Isis No, gapmer motif and SEQ ID NO of each short antisense compound are shown again in Table 75. Cultured Hep3B cells were treated with 100 nM of short antisense compound. 5-10-5 MOE gapmers targeted to a PCSK9 nucleic acid were used as positive controls. After the treatment period, RNA was isolated from the cells and PCSK9 mRNA levels were measured by quantitative real-time PCR, as described herein. PCSK9 mRNA levels were adjusted according to total RNA content as measured by RIBOGREEN®. Results are presented in Table 75 as percent inhibition of PCSK9 (% Inhib), relative to untreated control cells.

| Substance | % Inhib (PCSK9 mRNA) | % Inhibition Range (PCSK9 mRNA) |
| --- | --- | --- |
| 400324 (eG*eA*dG*dT*dA*dG*dA*dG*dG*d[5mC]*dA*dG*eG*e[5mC]; antisense) [compound 400324] | 7% |  |
| 400362 (antisense e[5mC]*eG*dG*d[5mC]*dA*dG*d[5mC]*dA*dG*dA*dT*dG*eG*e[5mC]) [compound 400362] | 16% | 10-20% |
| 400354 (antisense eG*eA*d[5mC]*dA*d[5mC]*d[5mC]*d[5mC]*dT*d[5mC]*dA*d[5mC]*d[5mC]*e[5mC]*e[5mC]) [compound 400354] | 19% | 10-20% |
| 400340 (e[5mC]*eT*dG*dG*dT*d[5mC]*d[5mC]*dT*d[5mC]*dA*dG*dG*eG*eA; antisense) [compound 400340] | 0% |  |
| 400337 (eG*eT*d[5mC]*d[5mC]*dT*d[5mC]*dA*dG*dG*dG*dA*dA*e[5mC]*e[5mC]; antisense) [compound 400337] | 0% |  |
| 400358 (antisense eA*eT*dG*dG*d[5mC]*dA*dG*d[5mC]*dA*dG*dG*dA*eA*eG) [compound 400358] | 12% | 10-20% |
| 400335 (e[5mC]*e[5mC]*dT*d[5mC]*dA*dG*dG*dG*dA*dA*d[5mC]*d[5mC]*eA*eG; antisense) [compound 400335] | 0% |  |
| 400355 (antisense eA*eG*dA*d[5mC]*dA*d[5mC]*d[5mC]*d[5mC]*dT*d[5mC]*dA*d[5mC]*e[5mC]*e[5mC]) [compound 400355] | 0% |  |
| 400302 (antisense eG*eA*dT*dA*d[5mC]*dA*d[5mC]*d[5mC]*dT*d[5mC]*d[5mC]*dA*e[5mC]*e[5mC]) [compound 400302] | 0% |  |
| 400313 (eG*e[5mC]*dA*dT*d[5mC]*d[5mC]*d[5mC]*dG*dG*d[5mC]*d[5mC]*dG*e[5mC]*eT; antisense) [compound 400313] | 10% | 10-20% |
| 400345 (eT*eG*dG*dG*dT*dG*d[5mC]*dT*dG*dG*dG*dG*eG*eG; antisense) [compound 400345] | 0% |  |
| 400342 (eG*eT*dG*d[5mC]*dT*dG*dG*dG*dG*dG*dG*d[5mC]*eA*eG; antisense) [compound 400342] | 0% |  |
| 400299 (antisense eA*e[5mC]*dA*dT*dG*dG*dG*dG*d[5mC]*dA*dA*d[5mC]*eT*eT) [compound 400299] | 0% |  |
| 400310 (eT*e[5mC]*d[5mC]*d[5mC]*dG*dG*d[5mC]*d[5mC]*dG*d[5mC]*dT*dG*eA*e[5mC]; antisense) [compound 400310] | 8% |  |
